According to patent publication US11111233B2, “Amino pyrimidine compound for inhibiting protein tyrosine kinase activity” (Shenzhen TargetRx, Inc., priority 2016, dated 2021):
Like-named read-outs stand apart in the source and are kept apart here.

How the values were obtained:
[1] = test system: lung cancer cells HCC827 (Del19); assay: Cytotoxicity test (MTS cell viability), HCC827; type: cell-based; conditions: Homo sapiens
EGFR [L858R/T790M] = EGFR [L858R/T790M] (Homo sapiens (Human), UniProt P00533, L858R/T790M); assay: Kinase inhibition assay (HTRF), EGFR [L858R/T790M]; type: biochemical; conditions: HTRF Kinase TK kit, 10 min pre-incubation, 20 min reaction; read-out: EGFR(L858R/T790M) IC50
[2] = test system: Skin cancer cell line A431 (WT); assay: Cytotoxicity test (MTS cell viability), A431; type: cell-based; conditions: Homo sapiens, A-431; MTS, 72 hours; read-out: A431 (WT) IC50
WT EGFR = WT EGFR (Homo sapiens (Human), UniProt P00533); assay: Kinase inhibition assay (HTRF), WT EGFR; type: biochemical; conditions: HTRF Kinase TK kit, 10 min pre-incubation, 20 min reaction
[3] = HCC827, MTS, 72 hours, read-out: HCC827 (Del19) IC50
[4] = HCC827, 72 h, read-out: HCC827 (Del19) IC50(nM)

Sequence of EGFR [L858R/T790M] (P00533 25-1210 T790M/L858R): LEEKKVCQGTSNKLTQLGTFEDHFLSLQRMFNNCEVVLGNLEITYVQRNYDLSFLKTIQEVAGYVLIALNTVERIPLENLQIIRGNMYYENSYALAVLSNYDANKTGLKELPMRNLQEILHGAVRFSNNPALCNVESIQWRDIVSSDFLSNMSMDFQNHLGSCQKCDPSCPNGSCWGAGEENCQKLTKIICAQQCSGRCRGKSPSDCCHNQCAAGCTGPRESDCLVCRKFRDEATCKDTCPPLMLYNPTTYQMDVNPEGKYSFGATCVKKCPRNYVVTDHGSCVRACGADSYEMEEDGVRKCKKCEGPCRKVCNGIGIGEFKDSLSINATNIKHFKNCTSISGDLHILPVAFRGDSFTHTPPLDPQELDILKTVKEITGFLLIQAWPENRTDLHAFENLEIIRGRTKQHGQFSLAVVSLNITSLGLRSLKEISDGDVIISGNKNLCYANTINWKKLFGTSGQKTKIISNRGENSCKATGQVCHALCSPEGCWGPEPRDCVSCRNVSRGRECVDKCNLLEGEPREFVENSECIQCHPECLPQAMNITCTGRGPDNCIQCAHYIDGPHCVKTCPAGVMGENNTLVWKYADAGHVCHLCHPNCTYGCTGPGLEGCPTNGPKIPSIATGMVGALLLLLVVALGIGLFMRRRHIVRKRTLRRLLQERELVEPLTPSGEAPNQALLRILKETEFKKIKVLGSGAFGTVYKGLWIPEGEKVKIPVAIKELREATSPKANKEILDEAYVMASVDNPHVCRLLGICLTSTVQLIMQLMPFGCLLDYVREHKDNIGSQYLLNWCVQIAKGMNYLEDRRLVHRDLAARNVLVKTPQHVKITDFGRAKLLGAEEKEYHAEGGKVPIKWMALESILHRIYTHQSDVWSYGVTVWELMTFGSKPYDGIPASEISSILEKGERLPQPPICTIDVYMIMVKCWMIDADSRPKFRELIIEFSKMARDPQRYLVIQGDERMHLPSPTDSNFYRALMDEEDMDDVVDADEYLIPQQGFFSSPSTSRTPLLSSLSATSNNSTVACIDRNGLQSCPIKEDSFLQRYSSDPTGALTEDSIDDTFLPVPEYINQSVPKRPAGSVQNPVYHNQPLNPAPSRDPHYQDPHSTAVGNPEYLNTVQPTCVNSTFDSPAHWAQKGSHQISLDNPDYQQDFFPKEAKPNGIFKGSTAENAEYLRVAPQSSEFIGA
Sequence of WT EGFR (P00533 25-1210): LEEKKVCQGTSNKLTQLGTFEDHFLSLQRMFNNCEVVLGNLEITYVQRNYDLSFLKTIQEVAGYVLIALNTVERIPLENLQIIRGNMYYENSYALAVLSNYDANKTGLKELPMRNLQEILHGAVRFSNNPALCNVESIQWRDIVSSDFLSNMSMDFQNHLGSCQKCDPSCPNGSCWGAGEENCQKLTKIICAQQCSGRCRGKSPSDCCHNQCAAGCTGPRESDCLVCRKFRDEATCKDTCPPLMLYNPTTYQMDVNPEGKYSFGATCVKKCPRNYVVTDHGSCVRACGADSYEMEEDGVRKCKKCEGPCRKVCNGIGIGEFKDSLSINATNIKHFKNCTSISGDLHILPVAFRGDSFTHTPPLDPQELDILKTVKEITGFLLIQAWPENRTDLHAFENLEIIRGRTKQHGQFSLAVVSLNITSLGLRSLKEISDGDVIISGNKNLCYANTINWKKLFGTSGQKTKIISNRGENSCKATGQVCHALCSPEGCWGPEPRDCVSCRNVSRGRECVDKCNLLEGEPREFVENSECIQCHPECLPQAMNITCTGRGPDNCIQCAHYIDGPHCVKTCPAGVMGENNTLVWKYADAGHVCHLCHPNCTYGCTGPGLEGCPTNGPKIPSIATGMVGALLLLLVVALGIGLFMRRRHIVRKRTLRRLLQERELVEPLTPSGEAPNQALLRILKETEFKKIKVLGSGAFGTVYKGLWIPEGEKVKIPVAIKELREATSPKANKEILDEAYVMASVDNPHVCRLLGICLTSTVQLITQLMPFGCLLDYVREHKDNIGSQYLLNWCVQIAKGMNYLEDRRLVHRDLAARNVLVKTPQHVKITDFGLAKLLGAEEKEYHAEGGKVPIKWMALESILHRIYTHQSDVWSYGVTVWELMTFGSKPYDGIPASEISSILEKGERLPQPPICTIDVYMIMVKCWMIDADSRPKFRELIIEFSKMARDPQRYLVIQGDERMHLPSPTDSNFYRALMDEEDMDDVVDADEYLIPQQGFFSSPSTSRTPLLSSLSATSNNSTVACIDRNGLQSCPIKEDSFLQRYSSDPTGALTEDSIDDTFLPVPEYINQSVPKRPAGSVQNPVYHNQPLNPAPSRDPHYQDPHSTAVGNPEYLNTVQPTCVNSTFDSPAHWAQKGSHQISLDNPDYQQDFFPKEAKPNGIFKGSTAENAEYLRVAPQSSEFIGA

Row | SMILES | IC50 [1, 3] | IC50 (EGFR [L858R/T790M]) | IC50 [2] | IC50 (WT EGFR) | IC50 [1, 4]
1 | C=CC(=O)Nc1cc(Nc2nccc(-c3cc4c5c(c3)nc(OC)n5CCC4)n2)c(OC)cc1N(C)CCN(C)C [Example 45, N-(2-((2-(dimethylamino)ethyl)(methyl)amino)-4-methoxy-5-((4-(2-methoxy-5,6-dihydro-4H-imidazo[4,5,1-ij]quinolin-8-yl)pyrimidin-2-yl)amino)phenyl)acrylamide] | 10 to 100 nM | < 1 nM | 400 to 1000 nM | 1 to 50 nM | 
2 | C=CC(=O)Nc1cc(Nc2nccc(-c3ccc4ncsc4c3)n2)c(OC)cc1N(C)CCN(C)C [Example 46, N-(5-((4-(benzo[d]thiazol-6-yl)pyrimidin-2-yl)amino)-2-((2-(dimethylamino)ethyl)(methyl)amino)-4-methoxyphenyl)acrylamide] | 10 to 100 nM | < 1 nM | 100 to 400 nM | 1 to 50 nM | 
3 | C=CC(=O)Nc1cc(Nc2nccc(-c3cc(F)c4nc(C)n(C(C)C)c4c3)n2)c(OCC)cc1N(C)CCN(C)C [Example 48, N-(2-((2-(dimethylamino)ethyl)(methyl)amino)-4-ethoxy-5-((4-(4-fluoro-1-isopropyl-2-methyl-1H-benzo[d]imidazole-6-yl)pyrimidin-2-yl)amino)phenyl)acrylamide] |  | < 1 nM | 400 to 1000 nM | 1 to 50 nM | < 10 nM
4 | C=CC(=O)Nc1cc(Nc2nccc(-c3cc(F)c4nc(C)n(C(C)C)c4c3)n2)c(OCC(F)(F)F)cc1N(C)CCN(C)C [Example 49, N-(2-((2-(dimethylamino)ethyl)(methyl)amino)-5-((4-(4-fluoro-1-isopropyl-2-methyl-1H-benzo[d]imidazole-6-yl)pyrimidin-2-yl)amino)-4-(2,2,2-trifluoroethoxy)phenyl)acrylamide] |  | < 1 nM | 10 to 100 nM | < 1 nM | < 10 nM
5 | [2H]C([2H])([2H])c1nc2ccc(-c3ccnc(Nc4cc(NC(=O)C=C)c(N(C)CCN(C)C)cc4OC)n3)cc2n1C(C)C [Example 50, N-(2-((2-(dimethylamino)ethyl)(methyl)amino)-5-((4-(1-isopropyl-2-(methyl-d3)-1H-benzo[d]imidazole-6-yl)pyrimidin-2-yl)amino)-4-methoxyphenyl)acrylamide] | 10 to 100 nM | 1 to 50 nM | 100 to 400 nM | 1 to 50 nM | 
6 | [2H]C(C)(C)n1c(C)nc2ccc(-c3ccnc(Nc4cc(NC(=O)C=C)c(N(C)CCN(C)C)cc4OC)n3)cc21 [Example 51, N-(2-((2-(dimethylamino)ethyl)(methyl)amino)-4-methoxy-5-((4-(2-methyl-1-(propyl-2-yl-2-d)-1H-benzo[d]imidazole-6-yl)pyrimidin-2-yl)amino)phenyl)acrylamide] | 10 to 100 nM | 1 to 50 nM | 100 to 400 nM | 1 to 50 nM | 
7 | [2H]C([2H])([2H])C(n1c(C)nc2ccc(-c3ccnc(Nc4cc(NC(=O)C=C)c(N(C)CCN(C)C)cc4OC)n3)cc21)C([2H])([2H])[2H] [Example 52, N-(2-((2-(dimethylamino)ethyl)(methyl)amino)-4-methoxy-5-((4-(2-methyl-1-(propyl-2-yl-1,1,1,3,3,3-d6)-1H-benzo[d]imidazole-6-yl)pyrimidin-2-yl)amino)phenyl)acrylamide] | < 10 nM | < 1 nM | 100 to 400 nM | 1 to 50 nM | 
8 | C=CC(=O)Nc1cc(Nc2nccc(-c3cc(F)c4nc(C)n(C(C)C)c4c3)n2)c(OC)cc1N(C)CCN(C)C [Example 53, N-(2-((2-(dimethylamino)ethyl)(methyl)amino)-5-((4-(4-fluoro-1-isopropyl-2-methyl-1H-benzo[d]imidazole-6-yl)pyrimidin-2-yl)amino)-4-methoxyphenyl)acrylamide] | < 10 nM | < 1 nM | 400 to 1000 nM | 1 to 50 nM | 
9 | COc1cc(N2CCN(C)CC2)ccc1Nc1ncc(F)c(-c2cc(F)c3nc(C)n(C(C)C)c3c2)n1 [Example 55, 5-fluoro-4-(4-fluoro-1-isopropyl-2-methyl-1H-benzo[d]imidazole-6-yl)-N-(2-methoxy-4-(4-methylpiperazin-1-yl)phenyl)pyrimidin-2-amine] | 400 to 1000 nM | 1 to 50 nM | 400 to 1000 nM | 1 to 50 nM | 
10 | C=CC(=O)Nc1cc(Nc2ncc(F)c(-c3cc(F)c4nc(C)c(C(=C)C)n4c3)n2)c(OC)cc1N(C)CCN(C)C [Example 56, N-(2-((2-(dimethylamino)ethyl)(methyl)amino)-5-((5-fluoro-4-(8-fluoro-2-methyl-3-(prop-1-en-2-yl)imidazo[1,2-a]pyridine-6-yl)pyrimidin-2-yl)amino)-4-methoxyphenyl)acrylamide] | 10 to 100 nM | 1 to 50 nM | > 1000 nM | 1 to 50 nM | 
11 | C=C(C)c1c(C)nc2c(F)cc(-c3nc(Nc4ccc(N5CCN(C)CC5)cc4OC)ncc3F)cn12 [Example 57, 5-fluoro-4-(8-fluoro-2-methyl-3-(prop-1-en-2-yl)imidazo[1,2-a]pyridine-6-yl)-N-(2-methoxy-4-(4-methylpiperazin-1-yl)phenyl)pyrimidin-2-amine] | > 1000 nM | 1 to 50 nM | > 1000 nM | > 100 nM | 
12 | COc1cc(N2CCN(C)CC2)ccc1Nc1ncc(F)c(-c2cc(F)c3nc(C)cn3c2)n1 [Example 58, 5-fluoro-4-(8-fluoro-2-methylimidazo[1,2-a]pyridine-6-yl)-N-(2-methoxy-4-(4-methylpiperazin-1-yl)phenyl)pyrimidin-2-amine] | > 1000 nM | > 100 nM | > 1000 nM | > 100 nM | 
13 | COc1cc(N2CCN(C)CC2)ccc1Nc1ncc(F)c(-c2cc(F)c3nc(C)c(C(C)C)n3c2)n1 [Example 59, 5-fluoro-4-(8-fluoro-3-isopropyl-2-methylimidazo[1,2-a]pyridine-6-yl)-N-(2-methoxy-4-(4-methylpiperazin-1-yl)phenyl)pyrimidin-2-amine] | > 1000 nM | 50 to 100 nM | > 1000 nM | > 100 nM | 
14 | C=CC(=O)Nc1cc(Nc2nccc(-c3cc(F)c4nc(C(F)F)n(C(C)C)c4c3)n2)c(OC)cc1N(C)CCN(C)C [Example 60, N-(5-((4-(2-(difluoromethyl)-4-fluoro-1-isopropyl-1H-benzo[d]imidazol-6-yl)pyrimidin-2-yl)amino)-2-((2-(dimethylamino)ethyl)(methyl)amino)-4-methoxyphenyl)acrylamide] | 10 to 100 nM | < 1 nM | 400 to 1000 nM | 1 to 50 nM | 
15 | C=CC(=O)Nc1cc(Nc2nccc(-c3cc(F)c4nc(OC(C)C)n(C(C)C)c4c3)n2)c(OC)cc1N(C)CCN(C)C [Example 61, N-(2-((2-(dimethylamino)ethyl)(methyl)amino)-5-((4-(4-fluoro-2-isopropoxy-1-isopropyl-1H-benzo[d]imidazol-6-yl)pyrimidin-2-yl)amino)-4-methoxyphenyl)acrylamide] | 10 to 100 nM | 1 to 50 nM | 100 to 400 nM | 1 to 50 nM | 
16 | C=CC(=O)Nc1cc(Nc2nccc(-c3cc(F)c4nc(OCC)n(C(C)C)c4c3)n2)c(OC)cc1N(C)CCN(C)C [Example 62, N-(2-((2-(dimethylamino)ethyl)(methyl)amino)-5-((4-(2-ethoxy-4-fluoro-1-isopropyl-1H-benzo[d]imidazol-6-yl)pyrimidin-2-yl)amino)-4-methoxyphenyl)acrylamide] | 10 to 100 nM | < 1 nM | > 1000 nM | 1 to 50 nM | 
17 | C=CC(=O)Nc1cc(Nc2nccc(-c3cc(F)c4nc(SC)n(C(C)C)c4c3)n2)c(OC)cc1N(C)CCN(C)C [Example 63, N-(2-((2-(dimethylamino)ethyl)(methyl)amino)-5-((4-(4-fluoro-1-isopropyl-2-(methylthio)-1H-benzo[d]imidazol-6-yl)pyrimidin-2-yl)amino)-4-methoxyphenyl)acrylamide] | 10 to 100 nM | < 1 nM | > 1000 nM | 1 to 50 nM | 
18 | C=CC(=O)Nc1cc(Nc2nccc(-c3cc(F)c4nc(OCC(F)F)n(C(C)C)c4c3)n2)c(OC)cc1N(C)CCN(C)C [Example 64, N-(5-((4-(2-(2,2-difluoroethoxy)-4-fluoro-1-isopropyl-1H-benzo[d]imidazol-6-yl)pyrimidin-2-yl)amino)-2-((2-(dimethylamino)ethyl)(methyl)amino)-4-methoxyphenyl)acrylamide] | 10 to 100 nM | < 1 nM | 100 to 400 nM | 1 to 50 nM | 
19 | C=CC(=O)Nc1cc(Nc2nccc(-c3cc(F)c4nc(COC)n(C(C)C)c4c3)n2)c(OC)cc1N(C)CCN(C)C [Example 65, N-(2-((2-(dimethylamino)ethyl)(methyl)amino)-5-((4-(4-fluoro-1-isopropyl-2-(methoxymethyl)-1H-benzo[d]imidazol-6-yl)pyrimidin-2-yl)amino)-4-methoxyphenyl)acrylamide] | < 10 nM | < 1 nM | 100 to 400 nM | 1 to 50 nM | 
20 | C=CC(=O)Nc1cc(Nc2nccc(-c3cc(F)c4nc5n(c4c3)CC(C)(C)O5)n2)c(OC)cc1N(C)CCN(C)C [Example 66, N-(2-((2-(dimethylamino)ethyl)(methyl)amino)-5-((4-(8-fluoro-2,2-dimethyl-2,3-dihydrobenzo[4,5]imidazo[2,1-b]oxazol-6-yl)pyrimidin-2-yl)amino)-4-methoxyphenyl)acrylamide] | 10 to 100 nM | 1 to 50 nM | 400 to 1000 nM | 1 to 50 nM | 
